Measurements taken from paper PMC9267128, “New 2-[(4-Amino-6-N-substituted-1,3,5-triazin-2-yl)methylthio]-N-(imidazolidin-2-ylidene)-4-chloro-5-methylbenzenesulfonamide Derivatives, Design, Synthesis and Anticancer Evaluation” (International Journal of Molecular Sciences, 2022).

How the values were obtained:
HCT-116 (colon cancer) = assay: MTT cell viability assay, HCT-116; type: cell-based, human; conditions: for IC50: MTT assay, 72 h of incubation
Description: (§1) Analysis was performed using an MTT assay after 72 h of incubation.
(§2) All chemicals, if not stated otherwise, were obtained from Sigma–Aldrich (St. Louis, MO, USA). The HCT-116 cell line was purchased from ATCC (ATCC-No: CCL-247), while the MCF-7, HeLa and HaCaT cell lines were purchased from Cell Lines Services (Eppelheim, Germany). Cells were cultured in Dulbecco’s modified Eagle’s medium (DMEM) supplemented with 10% fetal bovine serum, 2 mM glutamine, 100 units/mL penicillin and 100 µg/mL streptomycin. Cultures were maintained in a humidified atmosphere with 5% carbon dioxide at 37 °C in an incubator (Heraceus, HeraCell).
(§3) Cell viability was examined using the MTT [3-(4,5-dimethylthiazol-2-yl)-2,5-diphenyltetrazolium bromide] assay. Cells were seeded in 96-well plates at a density of 3 × 10^3 cells/well and treated for 72 h with the tested compounds in the concentration range of 1–100 µM. Then, MTT (0.5 mg/mL) was added to the medium and cells were further incubated for 2 h at 37 °C. In the next stage, cells were lysed with DMSO and the absorbance of the formazan solution was measured at 550 nm with a plate reader (1420 multilabel counter, Victor, Jügesheim, Germany). The experiment was performed in triplicate. Values are expressed as the mean ± SD of at least three independent experiments.

MCF-7 (breast cancer) = assay: MTT cell viability assay, MCF-7; type: cell-based, human; conditions: for IC50: Homo sapiens, MCF7, 72 h, MTT assay, 72 h of incubation
Description: (§4) Compounds 20–162 were evaluated in vitro for their effects on the viability of three cancer cell lines: HCT-116 (colon cancer), MCF-7 (breast cancer) and HeLa (cervical cancer), as well as the non-cancerous keratinocyte cell line (HaCaT). […] Analysis was performed using an MTT assay after 72 h of incubation.
as §2
as §3, with “experiments. Cisplatin was used as a positive control.” for “experiments.”

HeLa (cervical cancer) = assay: MTT cell viability assay, HeLa; type: cell-based, human; conditions: for IC50: Homo sapiens, HeLa, MTT assay, 72 h of incubation
Description: as §1, §2, §3

[1] = test system: HaCaT (human keratinocyte cell line); assay: MTT cell viability assay, non-cancerous HaCaT; type: cell-based; conditions: Homo sapiens, HaCaT, 72 h, 72 h of incubation, non-cancerous keratinocytes
Description: as §4, §2
as §3, with “experiments. Cisplatin was used as a positive control.” for “experiments.”

| Compound | IC50 (HCT-116 (colon cancer); Homo sapiens, HCT-116, 72 h) | IC50 (MCF-7 (breast cancer)) | IC50 (HeLa (cervical cancer)) | IC50 (HCT-116 (colon cancer)) | IC50 [1] | Selectivity Index (SI) HCT-116 (HCT-116 (colon cancer); IC50 value toward HaCaT cells/IC50 value toward HCT-116) | Selectivity Index (SI) MCF-7 (MCF-7 (breast cancer); IC50 value toward HaCaT cells/IC50 value toward MCF-7) | Selectivity Index (SI) HeLa (HeLa (cervical cancer); IC50 value toward HaCaT cells/IC50 value toward HeLa) |
| --- | --- | --- | --- | --- | --- | --- | --- | --- |
| Cc1cc(S(=O)(=O)N=C2NCCN2Cc2ccccc2)c(SCc2nc(N)nc(N3CCN(c4ccc(F)cc4)CC3)n2)cc1Cl [Compound 58] | 11 ± 0.3 µM | 17 ± 1 µM | 14 ± 2 µM |  | 29 ± 1 µM |  |  |  |
| Cc1cc(S(=O)(=O)N=C2NCCN2Cc2ccccc2)c(SCc2nc(N)nc(N3CCN(c4ccccc4F)CC3)n2)cc1Cl [Compound 59] | 13 ± 0.3 µM | 18 ± 1 µM | 15 ± 1 µM |  | 30 ± 1 µM |  |  |  |
| Cc1cc(S(=O)(=O)N=C2NCCN2Cc2ccccc2)c(SCc2nc(N)nc(N3CCN(c4ccc(Cl)c(Cl)c4)CC3)n2)cc1Cl [Compound 64] | 11 ± 0.4 µM | 14 ± 0.5 µM | 15 ± 1 µM |  | 28 ± 1 µM |  |  |  |
| COc1ccccc1N1CCN(c2nc(N)nc(CSc3cc(Cl)c(C)cc3S(=O)(=O)N=C3NCCN3Cc3ccccc3)n2)CC1 [Compound 66] | 12 ± 0.4 µM | 29 ± 1 µM | 20 ± 1 µM |  | 36 ± 2 µM |  |  |  |
| Cc1cc(S(=O)(=O)N=C2NCCN2Cc2ccccc2)c(SCc2nc(N)nc(N3CCN(Cc4ccccc4)CC3)n2)cc1Cl [Compound 68] | 16 ± 0.5 µM | 16 ± 0.5 µM | 14 ± 0.5 µM |  | 32 ± 2 µM |  |  |  |
| Cc1cc(S(=O)(=O)N=C2NCCN2Cc2cccc3ccccc23)c(SCc2nc(N)nc(N3CCc4ccccc43)n2)cc1Cl [Compound 74] | 44 ± 2 µM | 12 ± 0.6 µM | 13 ± 0.5 µM |  | 81 ± 4 µM |  |  |  |
| Cc1cc(S(=O)(=O)N=C2NCCN2Cc2cccc3ccccc23)c(SCc2nc(N)nc(Nc3ccccc3)n2)cc1Cl [Compound 75] | 30 ± 2 µM | 8 ± 0.5 µM | 77 ± 5 µM |  | 110 ± 5 µM |  |  |  |
| Cc1cc(S(=O)(=O)N=C2NCCN2Cc2cccc3ccccc23)c(SCc2nc(N)nc(N(C)c3ccc(Cl)cc3)n2)cc1Cl [Compound 76] | 46 ± 1 µM | 25 ± 1 µM | 28 ± 2 µM |  | 99 ± 4 µM |  |  |  |
| Cc1cc(S(=O)(=O)N=C2NCCN2Cc2cccc3ccccc23)c(SCc2nc(N)nc(N3CCN(c4ccccc4)CC3)n2)cc1Cl [Compound 77] | 40 ± 1 µM | 29 ± 1 µM | 110 ± 5 µM |  | 220 ± 11 µM |  |  |  |
| Cc1cc(S(=O)(=O)N=C2NCCN2Cc2cccc3ccccc23)c(SCc2nc(N)nc(N3CCN(c4ccc(C(F)(F)F)cc4)CC3)n2)cc1Cl [Compound 78] | 19.5 ± 0.6 µM | 11 ± 0.5 µM | 130 ± 8 µM |  | 280 ± 14 µM |  |  |  |
| Cc1cc(S(=O)(=O)N=C2NCCN2Cc2ccc(F)cc2)c(SCc2nc(N)nc(N3CCOCC3)n2)cc1Cl [Compound 82] | 19 ± 0.8 µM | 12 ± 0.1 µM | 30 ± 1 µM |  | 54 ± 2 µM |  |  |  |
| Cc1cc(S(=O)(=O)N=C2NCCN2Cc2ccc(F)cc2)c(SCc2nc(N)nc(N3CCc4ccccc43)n2)cc1Cl [Compound 83] | 10 ± 0.5 µM | 14 ± 1 µM | 12 ± 3 µM |  | 32 ± 1 µM |  |  |  |
| Cc1cc(S(=O)(=O)N=C2NCCN2Cc2ccc(F)cc2)c(SCc2nc(N)nc(Nc3ccccc3)n2)cc1Cl [Compound 85] | 15 ± 0.5 µM | 23 ± 1 µM | 21 ± 4 µM |  | 38 ± 1 µM |  |  |  |
| Cc1cc(S(=O)(=O)N=C2NCCN2Cc2ccc(F)cc2)c(SCc2nc(N)nc(Nc3ccc(F)cc3)n2)cc1Cl [Compound 86] | 13 ± 0.5 µM | 15 ± 0.2 µM | 16 ± 0.2 µM |  | 35 ± 2 µM |  |  |  |
| Cc1cc(S(=O)(=O)N=C2NCCN2Cc2ccc(F)cc2)c(SCc2nc(N)nc(Nc3ccc(C(F)(F)F)cc3)n2)cc1Cl [Compound 87] | 10 ± 0.4 µM | 7 ± 0.3 µM | 15 ± 1 µM |  | 34 ± 1 µM |  |  |  |
| COc1ccc(Nc2nc(N)nc(CSc3cc(Cl)c(C)cc3S(=O)(=O)N=C3NCCN3Cc3ccc(F)cc3)n2)cc1 [Compound 88] | 17 ± 0.5 µM | 31 ± 1 µM | 25 ± 2 µM |  | 43 ± 2 µM |  |  |  |
| Cc1cc(S(=O)(=O)N=C2NCCN2Cc2ccc(F)cc2)c(SCc2nc(N)nc(N(C)c3ccccc3)n2)cc1Cl [Compound 89] | 14 ± 0.7 µM | 18 ± 1 µM | 17 ± 0.6 µM |  | 31 ± 1 µM |  |  |  |
| Cc1cc(S(=O)(=O)N=C2NCCN2Cc2ccc(F)cc2)c(SCc2nc(N)nc(N(C)c3ccc(Cl)cc3)n2)cc1Cl [Compound 90] | 12 ± 0.2 µM | 17 ± 1 µM | 15 ± 0.6 µM |  | 30 ± 2 µM |  |  |  |
| Cc1cc(S(=O)(=O)N=C2NCCN2Cc2ccc(F)cc2)c(SCc2nc(N)nc(N3CCN(C)CC3)n2)cc1Cl [Compound 91] | 20 ± 1 µM | 13 ± 0.4 µM | 34 ± 2 µM |  | 54 ± 2 µM |  |  |  |

These reach a lower IC50 (HCT-116 (colon cancer); Homo sapiens, HCT-116, 72 h). Values come first.

| IC50 (HCT-116 (colon cancer); Homo sapiens, HCT-116, 72 h) | IC50 (MCF-7 (breast cancer)) | IC50 (HeLa (cervical cancer)) | IC50 (HCT-116 (colon cancer)) | Compound | IC50 [1] | Selectivity Index (SI) HCT-116 (HCT-116 (colon cancer); IC50 value toward HaCaT cells/IC50 value toward HCT-116) | Selectivity Index (SI) MCF-7 (MCF-7 (breast cancer); IC50 value toward HaCaT cells/IC50 value toward MCF-7) | Selectivity Index (SI) HeLa (HeLa (cervical cancer); IC50 value toward HaCaT cells/IC50 value toward HeLa) |
| --- | --- | --- | --- | --- | --- | --- | --- | --- |
| 8 ± 0.1 µM | 8 ± 0.2 µM | 102 ± 2 µM |  | Cc1cc(S(=O)(=O)N=C2NCCN2Cc2ccccc2)c(SCc2nc(N)nc(N3CCN(c4ccccc4)CC3)n2)cc1Cl [Compound 57] | 48 ± 2 µM |  |  |  |
| 8 ± 0.3 µM | 14 ± 0.3 µM | 9 ± 0.5 µM |  | Cc1cc(S(=O)(=O)N=C2NCCN2Cc2ccccc2)c(SCc2nc(N)nc(N3CCN(c4ccc(C(F)(F)F)cc4)CC3)n2)cc1Cl [Compound 60] | 23 ± 1 µM |  |  |  |
| 6.5 ± 0.1 µM | 9 ± 0.3 µM | 10 ± 0.2 µM |  | Cc1cc(S(=O)(=O)N=C2NCCN2Cc2ccccc2)c(SCc2nc(N)nc(N3CCN(c4cccc(C(F)(F)F)c4)CC3)n2)cc1Cl [Compound 61] | 21 ± 1 µM |  |  |  |
| 7 ± 0.1 µM | 9 ± 0.5 µM | 12 ± 0.5 µM |  | Cc1cc(S(=O)(=O)N=C2NCCN2Cc2ccccc2)c(SCc2nc(N)nc(N3CCN(c4cccc(Cl)c4)CC3)n2)cc1Cl [Compound 63] | 24 ± 1 µM |  |  |  |
| 7 ± 0.2 µM | 11 ± 0.5 µM | 11 ± 0.3 µM |  | Cc1cc(S(=O)(=O)N=C2NCCN2Cc2ccccc2)c(SCc2nc(N)nc(N3CCN(c4ccc(F)c(Cl)c4)CC3)n2)cc1Cl [Compound 65] | 23 ± 1 µM |  |  |  |
| 6.5 ± 0.1 µM | 9 ± 0.5 µM | 17 ± 0.5 µM |  | Cc1cc(S(=O)(=O)N=C2NCCN2Cc2ccccc2)c(SCc2nc(N)nc(N3CCC(Cc4ccccc4)CC3)n2)cc1Cl [Compound 72] | 28 ± 1 µM |  |  |  |
| < 6 µM | 7.5 ± 0.3 µM | 14 ± 0.3 µM | 5.2 ± 0.2 µM | Cc1cc(S(=O)(=O)N=C2NCCN2Cc2ccccc2)c(SCc2nc(N)nc(N3CC=C(c4ccc(F)cc4)CC3)n2)cc1Cl [Compound 73] | 29 ± 1 µM | 5.5 | 3.8 | 2.0 |
| 8.4 ± 0.3 µM | 8 ± 0.5 µM | 63 ± 1 µM |  | Cc1cc(S(=O)(=O)N=C2NCCN2Cc2cccc3ccccc23)c(SCc2nc(N)nc(N3CCN(Cc4ccccc4)CC3)n2)cc1Cl [Compound 81] | 240 ± 12 µM |  |  |  |
| 9 ± 0.5 µM | 7 ± 0.1 µM | 15 ± 0.6 µM |  | Cc1cc(S(=O)(=O)N=C2NCCN2Cc2ccc(F)cc2)c(SCc2nc(N)nc(N3CCCc4ccccc43)n2)cc1Cl [Compound 84] | 27 ± 1 µM |  |  |  |
| 7 ± 0.3 µM | 8 ± 0.4 µM | 8 ± 0.5 µM |  | Cc1cc(S(=O)(=O)N=C2NCCN2Cc2ccc(F)cc2)c(SCc2nc(N)nc(N3CCN(c4ccccc4)CC3)n2)cc1Cl [Compound 92] | 18 ± 1 µM |  |  |  |
| 7 ± 0.3 µM | 7 ± 0.5 µM | 8 ± 0.4 µM |  | Cc1cc(S(=O)(=O)N=C2NCCN2Cc2ccc(F)cc2)c(SCc2nc(N)nc(N3CCN(c4ccc(F)cc4)CC3)n2)cc1Cl [Compound 93] | 18 ± 1 µM |  |  |  |
| 9 ± 0.2 µM | 14 ± 0.5 µM | 12 ± 1 µM |  | Cc1cc(S(=O)(=O)N=C2NCCN2Cc2ccc(F)cc2)c(SCc2nc(N)nc(N3CCN(c4ccccc4F)CC3)n2)cc1Cl [Compound 94] | 25 ± 1 µM |  |  |  |
| 7 ± 0.3 µM | 7 ± 0.1 µM | 8 ± 0.4 µM |  | Cc1cc(S(=O)(=O)N=C2NCCN2Cc2ccc(F)cc2)c(SCc2nc(N)nc(N3CCN(c4ccc(C(F)(F)F)cc4)CC3)n2)cc1Cl [Compound 95] | 18 ± 1 µM |  |  |  |
| 6 ± 0.3 µM | 6 ± 0.2 µM | 9 ± 0.3 µM |  | Cc1cc(S(=O)(=O)N=C2NCCN2Cc2ccc(F)cc2)c(SCc2nc(N)nc(N3CCN(c4ccc(Cl)cc4)CC3)n2)cc1Cl [Compound 96] | 22 ± 1 µM |  |  |  |
